For assay [1], the target named is T1, DC-SIGN-Fc (Homo sapiens, UniProt Q9NNX6).
T1 sequence (Q9NNX6 64-404): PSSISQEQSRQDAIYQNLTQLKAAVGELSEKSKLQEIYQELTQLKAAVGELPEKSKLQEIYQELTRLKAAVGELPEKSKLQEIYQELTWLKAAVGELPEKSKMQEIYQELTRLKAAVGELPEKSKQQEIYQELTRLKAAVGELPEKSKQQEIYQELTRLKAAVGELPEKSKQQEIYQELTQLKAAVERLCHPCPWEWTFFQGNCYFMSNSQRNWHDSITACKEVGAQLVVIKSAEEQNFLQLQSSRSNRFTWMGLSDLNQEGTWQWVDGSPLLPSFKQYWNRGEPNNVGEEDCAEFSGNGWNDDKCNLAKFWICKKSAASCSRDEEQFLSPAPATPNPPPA
Put plainly: Soluble DC-SIGN-Fc adhesion assay (Fc ELISA).

The next assay has as its system granulocytes. Put plainly: DC-SIGN-Fc adhesion to granulocytes.
The target in assay [2] is T2, DC-SIGN on immature monocyte derived DC (Homo sapiens, UniProt Q9NNX6).
T2 construct: Immature DC were cultured from monocytes in the presence of IL-4 and GM-CSF; endogenous in cells; host or cells: immature monocyte-derived dendritic cells
T2 sequence (Q9NNX6 1-404): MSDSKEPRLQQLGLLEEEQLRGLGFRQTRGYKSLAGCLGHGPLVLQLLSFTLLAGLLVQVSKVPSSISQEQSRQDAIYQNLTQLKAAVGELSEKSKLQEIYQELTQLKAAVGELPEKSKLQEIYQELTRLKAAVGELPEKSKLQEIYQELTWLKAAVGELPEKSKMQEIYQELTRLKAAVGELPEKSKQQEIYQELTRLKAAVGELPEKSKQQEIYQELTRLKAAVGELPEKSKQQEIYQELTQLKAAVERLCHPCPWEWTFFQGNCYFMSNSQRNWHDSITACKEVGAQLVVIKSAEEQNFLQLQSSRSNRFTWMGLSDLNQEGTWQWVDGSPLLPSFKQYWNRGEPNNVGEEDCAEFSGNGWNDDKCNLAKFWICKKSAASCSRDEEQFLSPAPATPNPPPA
Briefly: Fluorescent bead adhesion assay, immature DC. In kind it is cell-based.

In assay [3] the target is T1, DC-SIGN-Fc. Put plainly: Immunoprecipitation and detection with DC-SIGN-Fc. The assay is classed as binding. As to conditions: immunoprecipitation. An excerpt: FIG. 59. […] Cell-surface proteins are biotinylated and PMNs are lysed. Lane 1. negative control using ICAM-3 Fc to capture by IP proteins. Detection is peroxidase-labeled streptavidin. Lane 2. DC-SIGN-Fc is used to capture ligands biotinylated ligands from lysate; two protein bands are visible, the upper band consists of CD11b and CD66a, whereas the lower consists of CD18. Lane 3. Negative control; no bands are immune precipitated with anti-DC-SIGN antibodies. Lane 4, IP with antibodies against CD66acd; a faint band is visible containing CD66a. Lane 5, IP of CD11b; two bands are visible; the upper band is […] and the lower band is CD18m, which is co-immuneprecipitated with […]. Lane 6. IP with DC-SIGN ligands and detection with anti-CD66acd; CD66a is captured by DC-SIGN Fc. Lane 7. IP with DC-SIGN ligands and detection with anti-CD11b; CD11b is captured by DC-SIGN Fc. Lane 8. Negative control, IP with anti-DC-SIGN antibodies and detection with DC-SIGN-Fc. Lane 9. IP with anti-CD66acd and detection with DC-SIGN Fc; CD66a is bound by DC-SIGN on blot. Lane 10. IP with anti-CD11a and detection with DC-SIGN Fc; CD11a is bound by DC-SIGN on blot.
Immunoprecipitation. […]

For assay [4], the target named is T3, DC-SIGN expressed by K562 transfectants (Homo sapiens, UniProt Q9NNX6).
T3 construct: expressed in transfected cells; host or cells: K562
T3 sequence (Q9NNX6 1-404): T2 sequence (Q9NNX6 1-404)
In kind it is cell-based.

Assay [5] addresses L-SIGN expressed by K562 transfectants (Homo sapiens, UniProt Q9H2X3). The assay is classed as cell-based.
The test system of a further assay is immature DC. The assay is classed as cell-based, human.
Another assay has as its target mSIGNR1 (Mus musculus, UniProt Q8CJ91). In kind it is cell-based, murine.
Assay [6] has as its system K562 transfectants expressing DC-SIGN. In kind it is cell-based, human.

Entries after “also recorded” stand apart in the source; their conditions may differ. Read-outs that look alike come from different tables or passages of the source.

Chain of mSIGNR1 (Q8CJ91 whole entry): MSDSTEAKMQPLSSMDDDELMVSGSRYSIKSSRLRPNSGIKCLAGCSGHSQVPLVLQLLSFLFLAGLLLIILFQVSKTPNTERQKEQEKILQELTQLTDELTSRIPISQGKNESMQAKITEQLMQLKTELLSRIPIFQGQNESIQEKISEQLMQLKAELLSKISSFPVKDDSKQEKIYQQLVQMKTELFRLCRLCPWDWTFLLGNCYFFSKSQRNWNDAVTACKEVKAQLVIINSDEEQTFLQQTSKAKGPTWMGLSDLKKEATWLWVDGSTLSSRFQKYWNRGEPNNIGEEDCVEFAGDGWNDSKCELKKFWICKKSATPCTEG
Chain of L-SIGN expressed by K562 transfectants (Q9H2X3 whole entry, looked up): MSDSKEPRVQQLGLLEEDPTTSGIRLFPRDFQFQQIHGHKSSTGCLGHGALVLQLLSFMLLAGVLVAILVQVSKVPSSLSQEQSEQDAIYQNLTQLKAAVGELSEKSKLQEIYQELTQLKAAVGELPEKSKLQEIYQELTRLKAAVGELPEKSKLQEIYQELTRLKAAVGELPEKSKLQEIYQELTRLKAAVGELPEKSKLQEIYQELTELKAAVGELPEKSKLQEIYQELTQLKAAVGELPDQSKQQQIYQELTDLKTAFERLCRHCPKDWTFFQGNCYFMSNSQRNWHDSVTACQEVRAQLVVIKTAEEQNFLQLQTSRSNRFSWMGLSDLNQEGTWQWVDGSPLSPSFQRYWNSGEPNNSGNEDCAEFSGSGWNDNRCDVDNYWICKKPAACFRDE

For `O=C(O)CN(CCOCCOCCN(CC(=O)O)CC(=O)O)CC(=O)O` [EGTA], the “inhibition of DC-SIGN-Fc binding to SEA” value at DC-SIGN-Fc [1] (coated SEA) was “completely inhibited”. On DC-SIGN-Fc [1] (coated whole mycobacteria), the “inhibition of DC-SIGN-Fc binding to M. tuberculosis and M. bovis BCG” value is listed as “inhibited”. The “inhibition of DC-SIGN-Fc binding to granulocytes” value in the assay with granulocytes was “blocked”. Further, the “inhibition of ManLAM binding by immature DC” value in assay [2] is recorded as “block”.

Take “CD11b: Lewis X-expressing CD11b captured from PMN lysate”: the “binding of DC-SIGN-Fc to coated ligand” value with DC-SIGN-Fc [1] (ELISA, ligand coated) is “high affinity binding”. Besides, in the assay with DC-SIGN-Fc [3], the “binding of DC-SIGN-Fc after α-1,3,4 Fucosidase treatment of the ligand” value is “abrogated”. Further, in [4], the “binding of ligand-coated beads to K562 DC-SIGN transfectants” value (“binding … to K562 DC-SIGN transfectants” for short) is recorded as “interacted strongly”.

As to mannan, at DC-SIGN-Fc [1], the “binding of DC-SIGN-Fc to coated ligand” value is recorded as “binds”; the “inhibition of DC-SIGN-Fc binding to M. tuberculosis and M. bovis BCG” value is listed as “inhibited”. For the same compound, in [5], the “binding of ligand-coated beads to K562 L-SIGN transfectants” value is given as “bind” and the “inhibition of gp120 binding to L-SIGN” value was “inhibited”. Moreover, in the assay with granulocytes, the “inhibition of DC-SIGN-Fc binding to granulocytes” value is listed as “blocked”. Also, in [2], the “inhibition of ManLAM binding by immature DC” value is recorded as “block” and the “inhibition of SEA binding to DC” value is on record as “strongly blocked”. Moreover, in the assay with immature DC, the “inhibition of M. bovis BCG binding/infection of immature DC” value was “blocked the infection to a similar level as the DC-SIGN antibodies” and the “inhibition of Neisseria IgtB binding to DC” value was “partly inhibit”. Further, in [4], the “binding … to K562 DC-SIGN transfectants” value was “bind” and the “inhibition of gp120 binding to DC-SIGN” value is on record as “inhibited”. In addition, at mSIGNR1, the “binding of ligand-coated beads to K562 mSIGNR1 transfectants” value (“binding … to K562 mSIGNR1 transfectants” below) is recorded as “bind” and the “inhibition of gp120 binding to mSIGNR1” value was “inhibited”. Besides, in assay [6], the “inhibition of internalization of M. bovis BCG by K562 DC-SIGN transfectants” value was “blocked”.

In the case of sialyl Lewis A, the “binding … to K562 DC-SIGN transfectants” value in assay [4] is on record as “bind”. In addition, on mSIGNR1, the “binding … to K562 mSIGNR1 transfectants” value was “bind”.

For sialyl-Le^x, the “binding of DC-SIGN-Fc to coated ligand” value at DC-SIGN-Fc [1] is reported as “completely abrogates the recognition; also recorded: lower binding affinity”. The “binding … to K562 mSIGNR1 transfectants” value on mSIGNR1 is “interacts”.

With α1->3, α1->6 mannotriose, the “binding of DC-SIGN-Fc to coated ligand” value at DC-SIGN-Fc [1] is on record as “binds; also recorded: high affinity”. The “binding of ligand-coated beads to immature DC” value in assay [2] is “preferentially bound by DC-SIGN”. In addition, the “binding … to K562 DC-SIGN transfectants” value in assay [4] was “bound similarly to the glycoconjugates as DC-SIGN-Fc”.

Consider […]-L-fucose, for which the “binding of DC-SIGN-Fc to coated ligand” value on DC-SIGN-Fc [1] is “lower binding affinity”.

Values taken from patent US8309097B2, “C-type lectin binding molecules, identification and uses thereof” (Vereniging voor Christelijk Wetenschappelijk Onderwijs, priority 2002, dated 2012).
